We go through 12 molecules from patent publication US8030453B2, “Methods of making an antibody that binds a chemerin polypeptide” (Euroscreen S.A., priority 2001, dated 2011).

Read-outs that look alike come from different tables or passages of the source. Peptide text beside a SMILES is read from it.

One series has as its target T1, ChemerinR (Homo sapiens, UniProt Q99788).
T1 construct: This fragment was subcloned into the pcDNA3 (Invitrogen) vector; expressed in transfected cells; CHO-K1 elsewhere)
T1 sequence (Q99788 3-373): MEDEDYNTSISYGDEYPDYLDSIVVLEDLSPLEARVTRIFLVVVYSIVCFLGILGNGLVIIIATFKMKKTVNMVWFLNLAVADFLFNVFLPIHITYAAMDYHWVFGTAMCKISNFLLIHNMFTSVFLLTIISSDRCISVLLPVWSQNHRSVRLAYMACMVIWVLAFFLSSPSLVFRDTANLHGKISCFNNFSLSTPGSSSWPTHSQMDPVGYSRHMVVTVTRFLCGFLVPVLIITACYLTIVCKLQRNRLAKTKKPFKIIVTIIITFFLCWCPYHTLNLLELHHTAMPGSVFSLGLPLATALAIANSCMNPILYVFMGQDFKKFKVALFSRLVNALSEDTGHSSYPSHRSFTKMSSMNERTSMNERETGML
The series can be described thus: Calcium flux - Aequoscreen assay. It counts as cell-based. The protocol: ChemerinR expressing clones were transfected to coexpress mithochondrial apoaequorin and Gα16. Cells in mid-log phase, grown in media without antibiotics 18 hours prior to the test, were detached by gentle flushing with PBS-EDTA (5 mM EDTA), recovered by centrifugation and resuspended in “BSA medium” (DMEM/HAM's F12 with HEPES, without phenol red+0.1% BSA). Cells were then counted, centrifuged and resuspended in a 15 ml Falcon tube at a concentration of 1×10^6 cells/ml.
The Falcon tube, wrapped in aluminium foil, was then placed on a vertical rotating wheel and incubated at room temperature (temperature should be maintained below 22° C.) overnight in order to reconstitute active aequorin.
Cells were then diluted 1/10 in “BSA-medium” and incubated as described above for 60 min. Reference ligands were diluted in “BSA-medium” and distributed in a 96-well plate (50 μl/well). For each measurement, 50 μl of cells (i.e. 5 000 cells) were injected into each well of the plate containing the ligands, and the emitted light is recorded (FDSS, Hamamatsu) during 20 seconds following cells injection. Results were expressed as Relative Light Units (RLU).
The intensity of the emitted light was integrated, yielding for each well one value representative of the emitted light.

Series [1] concerns the target T2, human ChemerinR (ChemR23) expressed in CHO-K1 cells (Homo sapiens, UniProt Q99788).
T2 construct: This fragment was subcloned into the pcDNA3 (Invitrogen) vector; expressed in transfected cells; host or cells: CHO-K1 (co-expressing mitochondrial apoaequorin and Galpha16)
T2 sequence (Q99788 3-373): T1 sequence (Q99788 3-373)
The experiment in a line: aequorin-based intracellular Ca2+ release assay. In kind it is cell-based. The protocol:
Briefly, ChemerinR-expressing clones are transfected to coexpress mitochondrial apoaequorin and Gα16. Cells are incubated with 5 μM Coelenterazine H (Molecular Probes) for 4 hours at room temperature, washed in DMEM-F12 culture medium and resuspended at a concentration of 0.5×10^6 cells/ml. Cells are then mixed with test agonist peptides and light emission by the aequorin is recorded with a luminometer for 30 sec. Results are expressed as Relative Light Units (RLU). Controls include assays using membranes isolated from cells not expressing ChemerinR (mock-transfected), in order to exclude possible non-specific effects of the candidate compound.
ChemerinR-expres sing clones have been obtained by transfection of CHO-K1 cells to coexpressing mitochondrial apoaequorin and Gα16, limiting dilution and selection by northern blotting. Positive clones were used for screening with human ovarian cancer ascites extracts prepared as described above. […] Briefly, cells were collected from plates in PBS containing 5 mM EDTA, pelleted and resuspended at 5×10^6 cells/ml in DMEM-F12 medium. Cells were incubated with 5 μM Coelenterazine H (Molecular Probes) for 4 hours at room temperature. Cells were then washed in DMEM-F12 medium and resuspended at a concentration of 0.5×10^6 cells/ml. Cells were then mixed with test agonist peptides or plates containing tissue extracts and the light emission was recorded for 30 sec using a Microlumat luminometer (Perkin Elmer). Results are expressed as Relative Light Units (RLU).

For series [2], the target named is T3, ChemerinR expressing CHO-K1 cells (Homo sapiens, UniProt Q99788).
T3 construct: This fragment was subcloned into the pcDNA3 (Invitrogen) vector; expressed in transfected cells; host or cells: CHO-K1
T3 sequence (Q99788 3-373): T1 sequence (Q99788 3-373)
The series can be described thus: competition binding assay with 125I-[…] tracer. Conditions: mean±s.e.m for 3 independent experiments. The protocol: ChemerinR expressing CHO-K1 cells were collected from plates with PBS supplemented with 5 mM EDTA, gently pelleted for 2 min at 1000×g, and resuspended in binding buffer (50 mM HEPES, pH 7.4, 1 mM CaCl2, 5 mM MgCl2, 0.5% BSA). […] Total binding was measured in the absence of competitor, and nonspecific binding was measured in the presence of a 100-fold excess of unlabeled ligand. Samples were incubated for 90 min at 27° C. and then bound tracer was separated by filtration through GF/B filters presoaked in 0.5% BSA. Filters were counted in a […]-scintillation counter. Binding parameters were determined with the PRISM software (Graphpad Software) using nonlinear regression applied to a one-site competition model.

Series [3] deals with human monocyte-derived dendritic cells and macrophages. The experiment in a line: chemotaxis (48-well microchemotaxis chamber) of primary cells. It counts as cell-based. The protocol:
(§1) Monocyte-derived DCs were generated by GM-CSF (50 ng/ml) and IL-13 (20 ng/ml) stimulation as previously described (17). Maturation of DCs was achieved following stimulation with 100 ng/ml LPS. Macrophages were obtained by incubating monocytes in Petriperm dishes (Haereus) for 6 days in RPMI supplemented with 10% FCS and 10 ng/ml MCSF. Cell migration was evaluated using a 48-well microchemotaxis chamber technique as described (18). For Ca2+ mobilization assays, monocyte-derived DCs or macrophages (10^7 cells/ml in HBSS without phenol red but containing 0.1% BSA) were loaded with 5 μM FURA-2 (Molecular Probes) for 30 min at 37° C. in the dark. The loaded cells were washed twice, resuspended at 10^6 cells/ml, kept for 30 min at 4° C. in the dark with or without the blocking 4C7 monoclonal antibody (10 μg/ml), and transferred into the quartz cuvette of a luminescence spectrometer LS50B (PerkinElmer).

Series [4] has as its system human chemerinR in CHO-K1 cells. The series can be described thus: intracellular cascade assays (calcium release, cAMP accumulation, p42/p44 MAP kinase phosphorylation) in CHO/chemerinR cells. In kind it is cell-based.
Series [5] concerns monocyte-derived immature dendritic cells and macrophages. The experiment in a line: Ca2+ mobilization (FURA-2) in primary cells. It counts as cell-based, human. Conditions: similar for macrophages, Chemerin 30 nM. As for the experimental part:
as §1
On the technique in general: Calcium assays in cells follow changes in intracellular calcium, usually with a dye or a luminescent sensor.

A further series has as its system wild-type CHO-K1 cells. The series can be described thus: signalling assays on wild-type CHO-K1 cells. It counts as cell-based, hamster.
The test system of series [6] is C5a and C3a receptors, CRTH2, GPR1, other characterized and orphan receptors, most chemokine receptors. The series can be described thus: reactivity of related and other receptors to Chemerin. In kind it is cell-based. The following applies: purified human Chemerin.
For series [7] the following is noted: 100 nM; culture medium or conditioned media of CHO-K1, Cos-7 or HEK293 cells.
Protocol: In order to investigate whether proteolytic activation of prochemerin is performed intracellularly in the secretory pathway, or is an extracellular process, potentially regulated by the activation of extracellular proteases, we tested the activation of human purified prochemerin in the medium of cultured cells and conditioned media.
The mark [8] stands for this setting: CHO cells expressing ChemerinR, aequorin assay, read-out: EC50 for activation of ChemerinR.

Regarding `CC(C)C[C@H](NC(=O)[C@@H](N)Cc1ccccc1)C(=O)N1CCC[C@H]1C(=O)NCC(=O)N[C@@H](CCC(N)=O)C(=O)N[C@@H](Cc1ccccc1)C(=O)N[C@@H](C)C(=O)N[C@@H](Cc1ccccc1)C(=O)N[C@@H](CO)C(=O)O` (H-FLPGQFAFS-OH; N-terminus and C-terminus assumed), the concentration giving a half-maximal response (EC50) at ChemerinR stood at 29.1 nM.
The same measure, in the same setting: the same measure for `CC[C@H](C)[C@H](N)C(=O)N[C@@H](Cc1ccccc1)C(=O)N1CCC[C@H]1C(=O)NCC(=O)N[C@@H](CCC(N)=O)C(=O)N[C@@H](Cc1ccccc1)C(=O)N[C@@H](C)C(=O)N[C@@H](Cc1ccccc1)C(=O)N[C@@H](CO)C(=O)O` (H-IFPGQFAFS-OH; N-terminus and C-terminus assumed): 25.8 nM; for `CC(C)C[C@H](N)C(=O)N[C@@H](Cc1ccccc1)C(=O)N1CCC[C@H]1C(=O)NCC(=O)N[C@@H](CCC(N)=O)C(=O)N[C@@H](Cc1ccccc1)C(=O)N[C@@H](C)C(=O)N[C@@H](Cc1ccccc1)C(=O)N[C@@H](CO)C(=O)O` (H-LFPGQFAFS-OH; N-terminus and C-terminus assumed): 66.3 nM; for `C[C@H](NC(=O)[C@H](Cc1ccccc1)NC(=O)[C@H](CCC(N)=O)NC(=O)CNC(=O)[C@@H]1CCCN1C(=O)[C@H](Cc1ccccc1)NC(=O)[C@@H](N)Cc1ccc(O)cc1)C(=O)N[C@@H](Cc1ccccc1)C(=O)N[C@@H](CC(=O)O)C(N)=O` (H-YFPGQFAFD-NH2; N-terminus assumed): 4.3 nM.
`C[C@H](NC(=O)[C@H](Cc1ccccc1)NC(=O)[C@H](CCC(N)=O)NC(=O)CNC(=O)[C@@H]1CCCN1C(=O)[C@H](Cc1ccccc1)NC(=O)[C@H](Cc1ccccc1)NC(=O)[C@H](Cc1ccccc1)NC(=O)[C@H](CO)NC(=O)[C@H](Cc1c[nH]cn1)NC(=O)[C@@H](N)Cc1ccc(O)cc1)C(=O)N[C@@H](Cc1ccccc1)C(=O)N[C@@H](CO)C(=O)O` (H-YHSFFFPGQFAFS-OH; N-terminus and C-terminus assumed): the EC50 in [1] stood at 0.028 µM. Besides, the Ki in series [2] (Ki) is 12.1 ± 4.97 nM; in series [2] (pKi), 11.2 nM.
As to `CC(C)[C@H](NC(=O)[C@@H](N)Cc1ccc(O)cc1)C(=O)N1CCC[C@H]1C(=O)NCC(=O)N[C@@H](CCC(N)=O)C(=O)N[C@@H](Cc1ccccc1)C(=O)N[C@@H](C)C(=O)N[C@@H](Cc1ccccc1)C(=O)N[C@@H](CO)C(=O)O` (H-YVPGQFAFS-OH; N-terminus and C-terminus assumed), the EC50 at ChemerinR (read-out: EC50) is 43.8 nM.
Regarding `CC(C)C[C@H](NC(=O)[C@H](C)NC(=O)[C@H](CCCCN)NC(=O)[C@H](CO)NC(=O)[C@H](Cc1ccccc1)NC(=O)[C@H](C)NC(=O)[C@H](Cc1ccccc1)NC(=O)[C@H](CCC(N)=O)NC(=O)CNC(=O)[C@@H]1CCCN1C(=O)[C@H](Cc1ccccc1)NC(=O)[C@H](Cc1ccc(O)cc1)NC(=O)[C@H](Cc1ccccc1)NC(=O)[C@H](CO)NC(=O)[C@H](Cc1c[nH]cn1)NC(=O)[C@@H]1CCCN1C(=O)[C@H](CC(=O)O)NC(=O)[C@H](CCC(=O)O)NC(=O)CNC(=O)[C@H](C)NC(=O)[C@H](CCCNC(=N)N)NC(=O)[C@@H](N)CCC(N)=O)C(=O)N1CCC[C@H]1C(=O)N[C@@H](CCCNC(=N)N)C(=O)N[C@@H](CO)C(=O)O` [Human prochemerin-25] (H-QRAGEDPHSFYFPGQFAFSKALPRS-OH; N-terminus and C-terminus assumed), in series [1] (truncated Chemerin peptides, values given in μM, read-out: Mean EC50), the EC50 turned out to be 160 ± 21 µM.
For the molecule Pertussis toxin [reference compound], in [3] (macrophages and dendritic cells, Pertussis toxin 3 μg/ml, 4C7 10 μg/ml), the “effect on Chemerin-induced migration” value is listed as “completely abolished”. In addition, the “effect on Chemerin signalling effects” value in series [4] (pretreatment) is on record as “inhibited”.
For the molecule QRAGEDPHSFYFPGQ, the “Mean EC50” value in series [1] (result in words) was “inactif”.
For “recombinant Chemerin: human recombinant Chemerin expressed in CHO-K1 cells, C-terminally truncated after serine 157 (137 amino acids)”, the “concentration of maximal chemotactic activity” value in [3] (immature dendritic cells) worked out at 1 nM. For the same molecule, the in vitro migration result in series [3] (macrophages and immature dendritic cells) was “promoted in vitro migration”. Further, the chemotaxis entry in [3] (mature dendritic cells) was “no chemotaxis”. The “intracellular Ca2+ levels” value in series [5] is reported as “increased”. Also, the “concentrations causing intracellular calcium release, inhibition of cAMP accumulation, phosphorylation of p42 and p44 MAP kinases” value in series [4] is reported as “low nanomolar concentrations”. Moreover, the “activity on wild-type CHO-K1 cells” value in the series on wild-type CHO-K1 cells is on record as “No activity”. Moreover, the “reactivity of other receptors” value in series [6] is “totally unreactive”.

B1: truncated PreprocHEMERIN: 157 amino acid truncated Preprochemerin polypeptide (SEQ ID NO: 73, FIG. 16) (protein, listed as Homo sapiens)
chain: MRRLLIPLALWLGAVGVGVAELTEAQRRGLQVALEEFHKHPPVQWAFQETSVESAVDTPFPAGIFVRLEFKLQQTSCRKRDWKKPECKVRPNGRKRKCLACIKLGSEDKVLGRLVHCPIETQVLREAEEHQETQCLRVQRAGEDPHSFYFPGQFAFS
In the case of B1, in series [1] (setting [8]), the half-maximal effective concentration (EC50) is 0.00427 µM.

B2: prochemerin: unprocessed form of the protein retaining the six C-terminal aminoacids (143 amino acids) (protein, listed as Homo sapiens)
chain: ELTEAQRRGLQVALEEFHKHPPVQWAFQETSVESAVDTPFPAGIFVRLEFKLQQTSCRKRDWKKPECKVRPNGRKRKCLACIKLGSEDKVLGRLVHCPIETQVLREAEEHQETQCLRVQRAGEDPHSFYFPGQFAFSKALPRS
Regarding B2, the half-maximal effective concentration (EC50) in [1] (setting [8]) is 0.393 ± 0.116 µM; in [1] (truncated Chemerin peptides, values in nM, read-out: Mean EC50), 0.393 ± 0.116 µM. The “activity on wild-type CHO-K1 cells” value in the series on wild-type CHO-K1 cells was “No activity”. The “conversion into a form active on ChemerinR” value in series [7] is listed as “fully converted”.

A word on the EC50: it is the concentration that produces a half-maximal response. The term Ki denotes a measure of affinity in units of concentration, obtained from inhibition or displacement. Lower therefore signals higher affinity.
